Experimental data as given in ChEMBL document CHEMBL3612037, “Design and synthesis of some new pyrazolyl-pyrazolines as potential anti-inflammatory, analgesic and antibacterial agents” (Eur J Med Chem, 2015).
Converted amounts (≈) assume the structure as drawn. The source made the active and inactive calls. No cut-off for these calls is given here.

What was measured:
[1] = Acute toxicity in Swiss mouse at 100 to 1000 mg/kg, po measured 48 hrs post dose; format: organism-based; conditions: in vivo
Staphylococcus [2] = assay: Antimicrobial activity against Staphylococcus citreus at 20 uL of 1 mg/ml by disc diffusion assay; format: functional; conditions: for zone of inhibition at 1000 µg/mL: read-out: IZ
Staphylococcus aureus [3] = assay: Antimicrobial activity against Staphylococcus aureus at 20 uL of 1 mg/ml by disc diffusion assay; format: functional; conditions: for zone of inhibition at 1000 µg/mL: read-out: IZ
Rattus norvegicus [4] = assay: Anti-inflammatory activity in Wistar rat assessed as inhibition of carrageenan-induced paw oedema at 50 mg/kg, po dosed 30 mins before carrageenan challenge and measured 30 mins post carrageenan challenge; format: functional
Mus musculus [5] = assay: Acute toxicity in Swiss mouse assessed as induction of diarrhoea incidence at 100 to 1000 mg/kg, po measured 48 hrs post dose; format: organism-based; conditions: in vivo
Rattus norvegicus [6] = assay: Analgesic activity in Wistar rat assessed as tail flick latency time at 50 mg/kg, po measured 0 mins post dose by tail flick method (reference value: 3.5 +/- 0.8 secs); format: functional
Rattus norvegicus [7] = assay: Analgesic activity in Wistar rat assessed as tail flick latency time at 50 mg/kg, po measured 30 mins post dose by tail flick method (reference value: 3.46 +/- 0.1 secs); format: functional
Rattus norvegicus [8] = assay: Anti-inflammatory activity in Wistar rat assessed as inhibition of carrageenan-induced paw oedema at 50 mg/kg, po dosed 30 mins before carrageenan challenge and measured 60 mins post carrageenan challenge; format: functional
Rattus norvegicus [9] = assay: Analgesic activity in Wistar rat assessed as tail flick latency time at 50 mg/kg, po measured 60 mins post dose by tail flick method (reference value: 3.47 +/- 0.1 secs); format: functional
Aeromonas hydrophila [10] = assay: Antimicrobial activity against Aeromonas hydrophila at 20 uL of 1 mg/ml by disc diffusion assay; format: functional; conditions: for zone of inhibition at 1000 µg/mL: read-out: IZ
Rattus norvegicus [11] = assay: Analgesic activity in Wistar rat assessed as tail flick latency time at 50 mg/kg, po measured 90 mins post dose by tail flick method (reference value: 3.7 +/- 0.1 secs); format: functional
Rattus norvegicus [12] = assay: Anti-inflammatory activity in Wistar rat assessed as inhibition of carrageenan-induced paw oedema at 50 mg/kg, po dosed 30 mins before carrageenan challenge and measured 120 mins post carrageenan challenge; format: functional
Mus musculus [13] = assay: Acute toxicity in Swiss mouse assessed as induction of depression incidence at 100 to 1000 mg/kg, po measured 48 hrs post dose; format: organism-based; conditions: in vivo
Escherichia coli = assay: Antimicrobial activity against Escherichia coli at 20 uL of 1 mg/ml by disc diffusion assay; format: functional; conditions: read-out: IZ
Staphylococcus [14] = assay: Antimicrobial activity against Staphylococcus citreus by agar dilution method; format: functional
Staphylococcus aureus [15] = assay: Antimicrobial activity against Staphylococcus aureus by agar dilution method; format: functional
Rattus norvegicus [16] = assay: Anti-inflammatory activity in Wistar rat assessed as inhibition of carrageenan-induced paw oedema at 20 mg/kg, po dosed 30 mins before carrageenan challenge and measured 120 mins post carrageenan challenge; format: functional
Rattus norvegicus [17] = assay: Anti-inflammatory activity in Wistar rat assessed as inhibition of carrageenan-induced paw oedema at 20 mg/kg, po dosed 30 mins before carrageenan challenge and measured 60 mins post carrageenan challenge; format: functional
Rattus norvegicus [18] = assay: Anti-inflammatory activity in Wistar rat assessed as inhibition of carrageenan-induced paw oedema at 20 mg/kg, po dosed 30 mins before carrageenan challenge and measured 30 mins post carrageenan challenge; format: functional
Aeromonas hydrophila [19] = assay: Antimicrobial activity against Aeromonas hydrophila by agar dilution method; format: functional

Structure (SMILES)	LD50 at 48 h [1] [mg/kg]	zone of inhibition at 1000 µg/mL (Staphylococcus [2]) [mm]	inhibition in vivo at 50 mg/kg (Rattus norvegicus [4]) [%]	Activity (Mus musculus [5])	Time (Rattus norvegicus [6]) [s]	Time (Rattus norvegicus [7]) [s]	inhibition in vivo at 50 mg/kg (Rattus norvegicus [8]) [%]	Time (Rattus norvegicus [9]) [s]	inhibition zone (IZ) (Aeromonas hydrophila [10])	Time (Rattus norvegicus [11]) [s]	inhibition in vivo at 50 mg/kg (Rattus norvegicus [12]) [%]	Activity (Mus musculus [13])	zone of inhibition at 1000 µg/mL (Escherichia coli) [mm]	zone of inhibition at 1000 µg/mL (Staphylococcus aureus [3]) [mm]	zone of inhibition at 1000 µg/mL (Aeromonas hydrophila [10]) [mm]	inhibition zone (IZ) (Staphylococcus [2])	further results
Cc1ccc(C2=NN(C=O)C(c3cn(-c4ccccc4)nc3-c3ccc(Cl)c(Cl)c3)C2)cc1 (stereo not drawn)	500	16	35.1	Non-toxic	3.4	4.7	53.4	4.6	inactive	4.4	60.9	Non-toxic	20	–	–	–	inhibition zone (IZ) (Staphylococcus aureus [3]): inactive
O=CN1N=C(c2ccc(F)cc2)CC1c1cn(-c2ccccc2)nc1-c1ccc(Cl)c(Cl)c1 (stereo not drawn)	500	18	37.2	Non-toxic	3.5	6.3	56.5	6.4	–	6.6	60.9	Non-toxic	12	13	10	–	–
CC(=O)N1N=C(c2ccc(F)cc2)CC1c1cn(-c2ccccc2)nc1-c1ccc(Cl)c(Cl)c1 (stereo not drawn)	500	–	45.7	Non-toxic	3.5	6.8	59.5	6.5	–	6.6	72.7	Non-toxic	12	–	19	inactive	inhibition zone (IZ) (Staphylococcus aureus [3]): inactive
Fc1ccc(C2=NN(c3ccccc3)C(c3cn(-c4ccccc4)nc3-c3ccc(Cl)c(Cl)c3)C2)cc1 (stereo not drawn)	500	37	44.7	Non-toxic	3.1	4.6	55.7	5.2	inactive	4.8	60.1	Non-toxic	21	31	–	–	MIC (Staphylococcus [14]): 200 µg/mL (≈ 379 µM); MIC (Staphylococcus aureus [15]): 300 µg/mL (≈ 569 µM)
CC(=O)N1N=C(c2ccc(C)cc2)CC1c1cn(-c2ccccc2)nc1-c1ccc(Cl)c(Cl)c1 (stereo not drawn)	500	–	27.6	Non-toxic	3.5	5.3	59.5	5.5	inactive	5.5	70.3	Non-toxic	18	19	–	inactive	–
Cc1ccc(C2=NNC(c3cn(-c4ccccc4)nc3-c3ccc(Cl)c(Cl)c3)C2)cc1 (stereo not drawn)	500	–	38.3	Non-toxic	3.6	5.9	56.5	6.3	–	6.5	48.4	Non-toxic	15	19	11	inactive	–
O=C(O)Cc1ccccc1Nc1c(Cl)cccc1Cl [DICLOFENAC SODIUM]	–	–	–	–	–	–	–	–	–	–	–	–	–	–	–	–	inhibition in vivo at 20 mg/kg (Rattus norvegicus [16]): 76.6%; inhibition in vivo at 20 mg/kg (Rattus norvegicus [17]): 71%; inhibition in vivo at 20 mg/kg (Rattus norvegicus [18]): 46.8%
CCC(=O)N1N=C(c2ccc(F)cc2)CC1c1cn(-c2ccccc2)nc1-c1ccc(Cl)c(Cl)c1 (stereo not drawn)	500	15	51.1	Non-toxic	3.4	7.9	63.4	7.7	–	7.2	75.6	Non-toxic	21	23	28	–	MIC (Aeromonas hydrophila [19]): 400 µg/mL (≈ 788 µM)
O=[N+]([O-])c1ccc(N2N=C(c3ccc(Cl)cc3)CC2c2cn(-c3ccccc3)nc2-c2ccc(Cl)c(Cl)c2)cc1 (stereo not drawn)	500	18	48.9	Non-toxic	3.4	6.9	57.2	7	–	6.6	69.5	Non-toxic	31	22	21	–	–
